{"source": "BindingDB's records for doi:10.1021/acs.jmedchem.0c01316", "about": "(Agricultural University of Athens, 2020)", "data": [{"experiment": "Inhibition of human RANKL-induced osteoclastogenesis in RANKL cultured mouse bone marrow cells assessed as reduction in RANKL/M-CSF-induced TRAP activity preincubated with RANKL for 1 hr followed by cell addition and subsequent media replenishment every 48 hrs for 4 days", "units": {"IC50": "nM"}, "values": [{"smiles": "Cc1cc2occ(CN(C)CCN(C)Cc3cn(-c4cccc(C(F)(F)F)c4)c4ccccc34)c(=O)c2cc1C", "IC50": 1000}, {"smiles": "CN(CCN(C)Cc1cn(S(=O)(=O)c2ccccc2)c2ccccc12)Cc1coc2ccccc2c1=O", "IC50": 2500}, {"smiles": "CN(CCN(C)C(=O)c1cn(-c2cccc([N+](=O)[O-])c2)c2ccccc12)C(=O)c1coc2ccccc2c1=O", "IC50": 1880}, {"smiles": "CN(CCN(C)C(=O)c1cn(S(=O)(=O)c2ccccc2)c2ccccc12)C(=O)c1coc2ccccc2c1=O", "IC50": 2860}, {"smiles": "CN(CCN(C)C(=O)c1cn(S(=O)(=O)c2cccc([N+](=O)[O-])c2)c2ccccc12)C(=O)c1coc2ccccc2c1=O", "IC50": 5070}, {"smiles": "CN(CCN(C)S(=O)(=O)c1ccccc1)C(=O)c1cn(S(=O)(=O)c2cccc([N+](=O)[O-])c2)c2ccccc12", "IC50": 2700}, {"smiles": "CN(CCN(C)S(=O)(=O)c1ccc(C#N)cc1)C(=O)c1cn(S(=O)(=O)c2cccc([N+](=O)[O-])c2)c2ccccc12", "IC50": 2000}, {"smiles": "CN(CCN(C)S(=O)(=O)c1cccc([N+](=O)[O-])c1)C(=O)c1cn(S(=O)(=O)c2cccc([N+](=O)[O-])c2)c2ccccc12", "IC50": 1900}, {"smiles": "O=C(c1cn(S(=O)(=O)c2cccc([N+](=O)[O-])c2)c2ccccc12)N1CCN(S(=O)(=O)c2ccccc2)CC1", "IC50": 1400}, {"smiles": "N#Cc1ccc(S(=O)(=O)N2CCN(C(=O)c3cn(S(=O)(=O)c4cccc([N+](=O)[O-])c4)c4ccccc34)CC2)cc1", "IC50": 5100}, {"smiles": "O=C(c1cn(S(=O)(=O)c2cccc([N+](=O)[O-])c2)c2ccccc12)N1CCN(S(=O)(=O)c2cccc([N+](=O)[O-])c2)CC1", "IC50": 6400}]}]}
